Source: US5462861A, “Method for improving enzyme activities with noble gases” (American Air Liquide, Chicago Research Center, priority 1993, dated 1995)

How the values were obtained:
isomerase enzymes = assay: Isomerases, effects for the class; assay type: biochemical
Protocol: Solution preparation: Optimized w/v solutions are prepared by diluting the enzyme (units/ml) and the substrate (μg/ml) in appropriate buffer (optimized pH and molarity for enzymes). The solutions are used for gas experiments at once to avoid loss of activity. Various enzyme and substrate concentrations and inhibitors may be employed. Physical parameters are varied as required.
Preparation of samples: Cuvets are filled with 2 ml of substrate solution by means of a gas-tight syringe. Gas-tight serum vials are filled with enzyme and solvent. Sufficient gas is consecutively bubbled in the cuvets and serum vials, with a 1-hr wait between injections to maximize equilibration of gas. […] The amount of gas used has been measured sufficient to saturate the solution required.
Spectrophotometric time-drive, reaction rate, and kinetic analyses: cuvets and serum vials are saturated with gas 40 minutes before the run. […] Changes in the rate or final equilibrium of the reaction versus ambient air are recorded. […]
In a complete experiment, an enzyme at optimal pH and buffering salt concentration is reacted with 5 substrate concentrations in solution with noble gas at 1 atm. […] The reaction is monitored colorimetrically in a scanning spectrophotometer in real time, and the signals are treated mathematically to obtain rate and yield differences. […]

β-glucosidase = assay: Kinetic analyses, β-glucosidase; assay type: biochemical; parameters: Rates G5 / Rates G5, Calculated: unit not given beside the values
Protocol: (§1) Absorbance curve data as previously exemplified reveal differences in enzymatic activity under different gas atmospheres both in terms of yield and in terms of rate. Yield can be calculated after equilibrium is reached by comparative curve differencing, and through formal linearization and calculation--which are also necessary for rate calculations. Rate differences are calculated using commercially available computer programs (ENZFITTER, GRAFIT, ENZPACK, PEAKFIT) which transform the initial uv/vis absorbance data curve (in these examples, a power curve) into straight lines (linear regression of power curve). These lines may be expressed as a mathematical equation in which the slope is approximately the rate, and the limit Y-intercept is approximately the yield. […] The examples and figures described below represent these steps in exemplary form.
Table 1 illustrates Michaelis-Menten enzyme kinetics calculations of Vmax and Km, and the rates for each reaction. Vmax is the limiting rate, Km is the Michaelis-Menten constant.
FIG. 46 and Table 2 illustrate the same as FIG. 45 and Table 1, however, for xenon reactions. It is readily apparent that the Vmax and Km for xenon are larger.
FIG. 47, Table 3, FIG. 48 and Table 4 illustrate the first-order power curve regression rate linear transformations for the above air and xenon gassed reactions, showing an approximation to the Michaelis-Menten data, wherein the Xe/Air rate relationship is in the same ratio as above.
FIG. 49, FIG. 50 and Table 5 illustrate the same first-order rate approximation regression linearizations for all gases studied in this run.

tyrosinase = assay: Kinetic analyses, tyrosinase; assay type: biochemical
Protocol: as §1
FIG. 51, Table 6, FIG. 52 and Table 7 illustrate data from the first 160 seconds of a single tyrosinase experiment expressed as power curves for air, then for xenon gassing.

β-D-Glucosidase = molecular target: T1, β-D-Glucosidase (Caldicellulosiruptor saccharolyticus, UniProt P10482); assay: Immobilized enzymes: β-D-glucosidase under air or xenon; assay type: biochemical, Caldocellum saccharolyticum; conditions: 25° C., FIG. 44
T1 construct: purchased Sigma G-0898; host or cells: E. coli
Protocol: Theory: Same gases effects on either free or immobilized enzymes.
β-D-Glucosidase (SIGMA) No. G-0898)
From Caldocellum saccharolyticum: Recombinant (pfs)
Soln C1: β-D-Glucosidase solution in Na Phos. buffer pH 6.6 (25 ° C.) (2.18 Units/ml)
(For insoluble enzymes lyophilized powders, SIGMA recommends to suspend the required amount to 5-10 mg solid/ml H2 O and to allow brief hydration). We allowed a brief hydration (until solution appears)
Sample: 2 ml Soln B+0.5 ml Soln C1
CPRG: β-Glucosidase: 25° C.

particulate sialidase = conditions: Sandhoff et al, FEBS Letters 1976; cited from earlier work
[1] = 1st order rate equation, [S] = 60 micrograms/ml, Table 4

T1 sequence (P10482 whole entry): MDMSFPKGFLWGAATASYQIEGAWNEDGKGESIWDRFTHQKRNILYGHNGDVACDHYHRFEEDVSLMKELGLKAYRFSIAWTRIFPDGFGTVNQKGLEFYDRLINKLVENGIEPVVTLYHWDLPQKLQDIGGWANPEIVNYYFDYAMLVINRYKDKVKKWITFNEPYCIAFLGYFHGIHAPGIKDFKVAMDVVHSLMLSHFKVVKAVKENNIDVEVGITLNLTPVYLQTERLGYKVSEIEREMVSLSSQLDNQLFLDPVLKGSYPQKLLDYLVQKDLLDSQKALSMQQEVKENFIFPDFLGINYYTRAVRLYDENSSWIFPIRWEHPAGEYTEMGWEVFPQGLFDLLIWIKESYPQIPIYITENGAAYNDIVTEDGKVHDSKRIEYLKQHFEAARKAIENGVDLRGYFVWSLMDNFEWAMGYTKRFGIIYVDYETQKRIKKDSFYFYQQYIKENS

For `[Ar]` [Ar, argon], the effect on isomerases (isomerase enzymes) was “can be induced to inhibit enzyme activity at higher temperatures”.
For `[Xe]` [Xe, xenon], the “Vmax and Km compared with air” value (β-glucosidase) was “larger”, the Limit (β-glucosidase; [1]) was 0.8382 and the Rate constant (β-glucosidase; [1]) was 0.0045. The V max (β-glucosidase; Michaelis-Menten, Gas 5: Xenon, Table 2) was 0.0028, the “Rates G5” value (β-glucosidase; [S] 20.0000) was 0.0032 and the “Rates G5, Calculated” value (β-glucosidase; [S] 20.0000) was 0.0032. The “Rates G5” value (β-glucosidase; [S] 40.0000) was 0.0029, the “Rates G5, Calculated” value (β-glucosidase; [S] 40.0000) was 0.0029 and the “Rates G5” value (β-glucosidase; [S] 60.0000) was 0.0027. The “Rates G5, Calculated” value (β-glucosidase; [S] 60.0000) was 0.0029, the “Rates G5” value (β-glucosidase; [S] 80.0000) was 0.0030 and the “Rates G5, Calculated” value (β-glucosidase; [S] 80.0000) was 0.0029. For the same compound, the “Rates G5” value (β-glucosidase; [S] 100.0000) was 0.0029, the “Rates G5, Calculated” value (β-glucosidase; [S] 100.0000) was 0.0028 and the “effect on β-glucosidase reaction” value (β-glucosidase; power curve analysis / linearization, FIGS. 49 and 50) was “significant enhancement”. For the same compound, the V max (tyrosinase; Michaelis-Menten, Gas 5: Xenon, Table 7, first 160 seconds) was 0.0001, the “Y, Calculated” value (tyrosinase; [S] 10.0000) was -0.0001 and the “Y, Gas 5: Xenon (rate)” value (tyrosinase; [S] 10.0000) was 0.0007. The “Y, Calculated” value (tyrosinase; [S] 20.0000) was -0.0003, the “Y, Gas 5: Xenon (rate)” value (tyrosinase; [S] 20.0000) was 0.0019 and the “Y, Calculated” value (tyrosinase; [S] 30.0000) was 0.0017. For the same compound, the “Y, Gas 5: Xenon (rate)” value (tyrosinase; [S] 30.0000) was 0.0019, the “Y, Calculated” value (tyrosinase; [S] 40.0000) was 0.0004 and the “Y, Gas 5: Xenon (rate)” value (tyrosinase; [S] 40.0000) was 0.0019. The “Y, Calculated” value (tyrosinase; [S] 50.0000) was 0.0003, the “Y, Gas 5: Xenon (rate)” value (tyrosinase; [S] 50.0000) was 0.0004 and the “effect on tyrosinase activity” value (tyrosinase; linearized rate regression and Michaelis-Menten calculations) was “strongly inhibiting tyrosinase activity”. For the same compound, the “effect on β-glucosidase in immobilized form” value (β-D-Glucosidase) was “enhancing” and the “effect on activity of particulate sialidase” value (particulate sialidase) was “enhance the activity”.
